US9663495B2 (YUHAN CORPORATION, priority 2013, dated 2017)

How the values were obtained:
GPR119 [1] = molecular target: T1, GPR119 (Homo sapiens, UniProt Q8TDV5); test: cAMP Accumulation Assay (GPR119 CRE-bla CHO-K1 cells, LiveBLAzer-FRET B/G); assay type: cell-based; conditions: for EC50: 5 hours incubation; for Emax (Fold): maximum activity, response ratio versus non-treated control group
T1 construct: host or cells: CHO-K1 (GPR119 CRE-bla, doxycycline-induced)
T1 sequence (Q8TDV5 1-335): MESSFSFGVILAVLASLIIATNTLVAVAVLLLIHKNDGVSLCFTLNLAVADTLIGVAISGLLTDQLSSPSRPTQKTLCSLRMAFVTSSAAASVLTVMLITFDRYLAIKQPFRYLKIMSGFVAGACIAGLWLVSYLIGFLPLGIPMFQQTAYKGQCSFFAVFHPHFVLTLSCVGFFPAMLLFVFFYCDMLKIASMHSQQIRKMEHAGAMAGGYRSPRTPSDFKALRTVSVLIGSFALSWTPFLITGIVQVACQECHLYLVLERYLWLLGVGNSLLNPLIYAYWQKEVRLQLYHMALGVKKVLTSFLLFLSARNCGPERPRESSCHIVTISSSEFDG
Method: 32 μl of an assay medium (DMEM supplemented with GlutaMax™ 99%, dialyzed FBS 1%, non-essential amino acid 1 mM, HEPES 25 mM, penicillin 100 U/ml, and streptomycin 100 μg/ml) was added to each well of a 384 black well plate and then the GPR119 CRE-bla CHO-K1 cells (Invitrogen) were seeded in 1×10^4 cells per well. Doxycycline was dissolved in the assay medium in the concentration of 1 μg/ml. The resulting solution (4 μl) was added to each well, which was then incubated in a 5% CO 2 incubator at 37° C. for about 20 to 24 hours. Each test compounds were diluted with the assay medium to prepare 10 samples, which have concentrations ranging from […], respectively. Each samples (8 μl) was added to each well, which was then incubated in a 5% CO2 incubator at 37° C. for 5 hours. In case of the control group, the well was treated with a solution (8 μl) prepared by diluting dimethyl sulfoxide (DMSO) in the assay medium to 1%. The substrate mixture (8 μl) was added to each well, which was then left under darkness at room temperature for 2 hours. The substrate mixture contains the followings: 1 mM LiveBLAzer™-FRET B/G(CCF4-AM) substrate 6 μl, solution B 60 μl, solution C 904 μl, and solution D 30 μl.
Fluorescence intensity was determined under the wavelength conditions of 400 nm/465 nm (excitation/emission) for the blue channel and 400 nm/535 nm (excitation/emission) for the green channel, with the fluorescence microplate reader (SpectraFluor Plus. TECAN). The net activity of each well was calculated by subtracting the average value of the cell-free control group from the value of the unstimulated (i.e., non-treated) control group or the stimulated (i.e., test compound-treated) group at each wavelength. MBX-2982 (Metabolex) was used as a control drug. The response ratio was calculated by dividing the net signal ratio (465 nm/535 nm) of the control drug or the test compound by the net signal ratio (465 nm/535 nm) of the non-treated control group. The relative ratio (R.R) was calculated by dividing the maximum activity [Emax (fold)] of the test compound (i.e., % activity in comparison with the background) by the maximum activity [Emax (fold)] of the control drug (MBX-2982) [Emax (% RR)=(Emax of the test compound/Emax of MBX-2982)×100]. EC50 (half maximal effective concentration) was calculated using the software for statistical analysis “Prism 5.0 (GraphPad)”, based on the values obtained according to concentrations of the test compounds.

GPR119 [2] = molecular target: T1, GPR119; test: as above; assay type: cell-based; conditions: (Emax of the test compound/Emax of MBX-2982)x100, 5 hours incubation

| SMILES | EC50 (GPR119 [1]) [nM] | Emax (Fold) (GPR119 [1]) | Emax (% RR) (GPR119 [2]) |
| --- | --- | --- | --- |
| CCCn1ncn(-c2ccc(-c3cnc(N4CCN(C(=O)OC(C)(C)C)C[C@@H]4C)nc3)cc2F)c1=O [Example 2, (S)-tert-butyl 4-(5-(3-fluoro-4-(5-oxo-1-propyl-1H-1,2,4-triazol-4(5H)-yl)phenyl)pyrimidin-2-yl)-3-methylpiperazin-1-carboxylate] | 31.9 | 3.3 | 101.6 |
| CC(C)n1ncn(-c2ccc(-c3cnc(N4CCN(C(=O)OC(C)(C)C)C[C@@H]4C)nc3)cc2F)c1=O [Example 3, (S)-tert-butyl 4-(5-(3-fluoro-4-(1-isopropyl-5-oxo-1H-1,2,4-triazol-4(5H)-yl)phenyl)pyrimidin-2-yl)-3-methylpiperazin-1-carboxylate] | 62 | 3.4 | 113.4 |
| COCCn1ncn(-c2ccc(-c3cnc(N4CCN(C(=O)OC(C)(C)C)C[C@@H]4C)nc3)cc2F)c1=O [Example 4, (S)-tert-butyl 4-(5-(3-fluoro-4-(1-(2-methoxyethyl)-5-oxo-1H-1,2,4-triazol-4(5H)-yl)phenyl)pyrimidin-2-yl)-3-methylpiperazin-1-carboxylate] | 54.9 | 3.5 | 108.0 |
| CCc1cnc(N2CCN(c3ncc(-c4ccc(-n5cnn(C)c5=O)c(F)c4)cn3)[C@@H](C)C2)nc1 [Example 7, (S)-4-(4-(2-(4-(5-ethylpyrimidin-2-yl)-2-methylpiperazin-1-yl)pyrimidin-5-yl)-2-fluorophenyl)-1-methyl-1H-1,2,4-triazol-5(4H)-one] | 26 | 2.5 | 111.5 |
| CCc1cnc(N2CCN(c3ncc(-c4ccc(-n5cnn(CC(=O)OC)c5=O)c(F)c4)cc3C#N)[C@@H](C)C2)nc1 [Example 13, (S)-methyl 2-(4-(4-(5-cyano-6-(4-(5-ethylpyrimidin-2-yl)-2-methylpiperazin-1-yl)pyridin-3-yl)-2-fluorophenyl)-5-oxo-4,5-dihydro-1H-1,2,4-triazol-1-yl)acetate] | 114 | 2.9 | 102.0 |
| CCc1cnc(N2CCN(c3ncc(-c4ccc(-n5cnn(CCNC(=O)OC(C)(C)C)c5=O)c(F)c4)cc3C#N)[C@@H](C)C2)nc1 [Example 16, (S)-tert-butyl 2-(4-(4-(5-cyano-6-(4-(5-ethylpyrimidin-2-yl)-2-methylpiperazin-1-yl)pyridin-3-yl)-2-fluorophenyl)-5-oxo-4,5-dihydro-1H-1,2,4-triazol-1-yl)ethylcarbamate] | 7.2 | 3.3 | 116.8 |
| CCc1cnc(N2CCN(c3ncc(-c4ccc(-n5cnn(CC#N)c5=O)c(F)c4)cc3C#N)[C@@H](C)C2)nc1 [Example 18, (S)-5-(4-(1-(cyanomethyl)-5-oxo-1H-1,2,4-triazol-4(5H)-yl)-3-fluorophenyl)-2-(4-(5-ethylpyrimidin-2-yl)-2-methylpiperazin-1-yl)nicotinonitrile] | 17 | 2.9 | 104.6 |
| CCc1cnc(N2CCN(c3ncc(-c4ccc(-n5cnn(COC)c5=O)c(F)c4)cc3C#N)[C@@H](C)C2)nc1 [Example 22, (S)-2-(4-(5-ethylpyrimidin-2-yl)-2-methylpiperazin-1-yl)-5-(3-fluoro-4-(1-(methoxymethyl)-5-oxo-1H-1,2,4-triazol-4(5H)-yl)phenyl)nicotinonitrile] | 10.2 | 3.2 | 119.3 |
| CCc1cnc(N2CCN(c3ncc(-c4ccc(-n5cnn(CCNS(C)(=O)=O)c5=O)c(F)c4)cc3C#N)[C@@H](C)C2)nc1 [Example 23, (S)—N-(2-(4-(4-(5-cyano-6-(4-(5-ethylpyrimidin-2-yl)-2-methylpiperazin-1-yl)pyridin-3-yl)-2-fluorophenyl)-5-oxo-4,5-dihydro-1H-1,2,4-triazol-1-yl)ethyl)methanesulfonamide] | 7.9 | 3.4 | 111.7 |

Now those with a lower EC50 (GPR119 [1]), led by results:

| EC50 (GPR119 [1]) [nM] | Emax (Fold) (GPR119 [1]) | Emax (% RR) (GPR119 [2]) | SMILES |
| --- | --- | --- | --- |
| 5 | 2.5 | 113.4 | C[C@H]1CN(c2ccc(C(F)(F)F)cn2)CCN1c1ncc(-c2ccc(-n3cnn(C)c3=O)c(F)c2)cn1 [Example 8, (S)-4-(2-fluoro-4-(2-(2-methyl-4-(5-(trifluoromethyl)pyridin-2-yl)piperazin-1-yl)pyrimidin-5-yl)phenyl)-1-methyl-1H-1,2,4-triazol-5(4H)-one] |
| 3 | 2.8 | 118.2 | CCc1cnc(N2CCN(c3ncc(-c4ccc(-n5cnn(C)c5=O)c(F)c4)cc3C#N)[C@@H](C)C2)nc1 [Example 9, (S)-2-(4-(5-ethylpyrimidin-2-yl)-2-methylpiperazin-1-yl)-5-(3-fluoro-4-(1-methyl-5-oxo-1H-1,2,4-triazol-4(5H)-yl)phenyl)nicotinonitrile] |
| 5 | 2.9 | 102.1 | CCc1cnc(N2CCN(c3ncc(-c4ccc(-n5cnn(CC(C)(C)O)c5=O)c(F)c4)cc3C#N)[C@@H](C)C2)nc1 [Example 11, (S)-2-(4-(5-ethylpyrimidin-2-yl)-2-methylpiperazin-1-yl)-5-(3-fluoro-4-(1-(2-hydroxy-2-methylpropyl)-5-oxo-1H-1,2,4-triazol-4(5H)-yl)phenyl)nicotinonitrile] |
| 1 | 2.6 | 103.8 | CCc1cnc(N2CCN(c3ncc(-c4ccc(-n5cnn(CC(C)C)c5=O)c(F)c4)cc3C#N)[C@@H](C)C2)nc1 [Example 12, (S)-2-(4-(5-ethylpyrimidin-2-yl)-2-methylpiperazin-1-yl)-5-(3-fluoro-4-(1-isobutyl-5-oxo-1H-1,2,4-triazol-4(5H)-yl)phenyl)nicotinonitrile] |
| 5.4 | 3.5 | 113.0 | CCc1cnc(N2CCN(c3ncc(-c4ccc(-n5cnn(CCN(C(=O)OC(C)(C)C)C(C)C)c5=O)c(F)c4)cc3C#N)[C@@H](C)C2)nc1 [Example 19, (S)-tert-butyl 2-(4-(4-(5-cyano-6-(4-(5-ethylpyrimidin-2-yl)-2-methylpiperazin-1-yl)pyridin-3-yl)-2-fluorophenyl)-5-oxo-4,5-dihydro-1H-1,2,4-triazol-1-yl)ethyl(isopropyl)carbamate] |
| 5.6 | 3.1 | 109.6 | CCc1cnc(N2CCN(c3ncc(-c4ccc(-n5cnn(CCNC(C)C)c5=O)c(F)c4)cc3C#N)[C@@H](C)C2)nc1.Cl [Example 20, (S)-2-(4-(5-ethylpyrimidin-2-yl)-2-methylpiperazin-1-yl)-5-(3-fluoro-4-(1-(2-(isopropylamino)ethyl)-5-oxo-1H-1,2,4-triazol-4(5H)-yl)phenyl)nicotinonitrile hydrochloride] |
| 2 | 2.9 | 102.0 | CCc1cnc(N2CCN(c3ncc(-c4ccc(-n5cn[nH]c5=O)c(F)c4)cc3C#N)[C@@H](C)C2)nc1 [Example 21, (S)-2-(4-(5-ethylpyrimidin-2-yl)-2-methylpiperazin-1-yl)-5-(3-fluoro-4-(5-oxo-1H-1,2,4-triazol-4(5H)-yl)phenyl)nicotinonitrile] |
